Drawing on US20250026761A1, “DIAZABICYCLOOCTANE DERIVATIVES USEFUL AS MATRIX METALLOPROTEINASE INHIBITORS” (VASA THERAPEUTICS SPÓLKA Z OGRANICZONA ODPOWIEDZIALNOSCIA, priority 2021, published 2025), this text covers IC50 for 6 compounds.

Holding throughout (type): biochemical
In one assay the target is T1, MMP9 (Homo sapiens, UniProt P14780).
T1 construct: purchased Enzo Life Sciences, Inc. BML-AK410
Nature of the assay: MMP-9 colorimetric inhibition assay (Enzo kit). The settings on record: colorimetric thiopeptide substrate, absorbance 415 nm; read-out: MMP9 IC50 class. As to the method: (§1) The inhibitory activities of the compounds of the invention were assessed in 96-well microplate format using MMP1, MMP2, MMP9 and MMP13 colorimetric assay kits and TACE fluorometric assay kit from Enzo Life Sciences, Inc. The inhibitory effect of the compounds of the invention on ADAM10 activity were evaluated in 96-well microplate format using fluorometric assay from AnaSpec, Inc.
The MMP-9 Colorimetric Drug Discovery Kit (catalog #BML-AK410) is a complete assay system designed to screen inhibitors of matrix metalloproteinase-9 using a thiopeptide as a chromogenic substrate (Ac-PLG-[2-mercapto-4-methylpentanoyl]-LG-OC2H5). The MMP cleavage site peptide bond is replaced by a thioester bond in the thiopeptide. Hydrolysis of this bond by an MMP produces a sulfhydryl group, which reacts with DTNB [5,5′-dithiobis(2-nitrobenzoic acid), Ellman's reagent] to form 2-nitro-5-thiobenzoic acid, that can be detected spectrophotometrically.
(§2) The inhibitory activities of the compounds of the invention against MMP1, MMP2, MMP9 and MMP13 were tested according to the manufacturer's assay protocols and the absorbance at 415 nm was monitored using the Tecan Infinite® 200 Pro F Nano^+ microplate reader.
(§3) The normalized values were analyzed using GraphPadPrism 9 for Windows (GraphPad Software, San Diego, CA, USA) software by plotting inhibition curves and determining the IC50 values.
(§4) The calculated IC50 values were divided into the following classes: • A: <50 nM; B: 50-1000 nM; C: >1000-10,000 nM; D: >10,000 nM

The target of another assay is T2, MMP2 (Homo sapiens, UniProt P08253).
T2 construct: purchased Enzo Life Sciences, Inc. BML-AK408
T2 sequence (P08253 110-452 limits assumed): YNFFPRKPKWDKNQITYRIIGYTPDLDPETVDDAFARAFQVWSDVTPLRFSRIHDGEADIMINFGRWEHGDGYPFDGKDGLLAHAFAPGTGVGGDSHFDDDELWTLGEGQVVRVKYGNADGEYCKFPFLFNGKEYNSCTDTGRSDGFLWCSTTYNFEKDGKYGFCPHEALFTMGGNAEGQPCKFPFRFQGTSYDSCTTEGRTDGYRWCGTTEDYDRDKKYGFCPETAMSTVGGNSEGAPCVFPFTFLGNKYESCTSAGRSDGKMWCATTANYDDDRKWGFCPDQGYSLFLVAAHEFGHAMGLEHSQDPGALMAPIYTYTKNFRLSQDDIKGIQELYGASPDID
Nature of the assay: MMP-2 colorimetric inhibition assay (Enzo kit). To be noted: colorimetric thiopeptide substrate, absorbance 415 nm; read-out: MMP2 IC50 class. How it is done:
as §1
The MMP-2 Colorimetric Drug Discovery Kit (catalog #BML-AK408) is a complete assay system designed to screen MMP-2 inhibitors using a thiopeptide as a chromogenic substrate (Ac-PLG-[2-mercapto-4-methylpentanoyl]-LG-OC2H5). The MMP cleavage site peptide bond is replaced by a thioester bond in the thiopeptide. Hydrolysis of this bond by an MMP produces a sulfhydryl group, which reacts with DTNB [5,5′-dithiobis(2-nitrobenzoic acid), Ellman's reagent] to form 2-nitro-5-thiobenzoic acid, that can be detected spectrophotometrically.
as §2, §3, §4

A further assay has as its target T3, TACE (ADAM17) (Homo sapiens, UniProt P78536).
T3 construct: purchased Enzo Life Sciences, Inc. BML-AK310
In words: TACE fluorometric inhibition assay (Enzo kit). The settings on record: quenched fluorogenic peptide, ex/em 320 nm/420 nm; read-out: TACE IC50 class. How it is done: as §1
The TACE Fluorometric Drug Discovery Kit (catalog #BML-AK310) is a complete assay system designed to screen ADAM17 (TACE) inhibitors using a quenched fluorogenic peptide: Mca-PLAQAV-Dpa-RSSSR-NH2. Mca fluorescence is quenched by the Dpa group until cleavage by proteases separates the two moieties leading to an increase in Mca fluorescence.
The inhibitory activity of the compounds of the invention against TACE was tested according to the manufacturer's assay protocol and the fluorescence was monitored at excitation/emission wavelengths=320 nm/420 nm using Tecan Infinite® 200 Pro F Nano^+ microplate reader.
as §3, §4

Another assay concerns the target T4, MMP1 (Homo sapiens, UniProt P03956).
T4 construct: purchased Enzo Life Sciences, Inc. BML-AK404
T4 sequence (P03956 100-469): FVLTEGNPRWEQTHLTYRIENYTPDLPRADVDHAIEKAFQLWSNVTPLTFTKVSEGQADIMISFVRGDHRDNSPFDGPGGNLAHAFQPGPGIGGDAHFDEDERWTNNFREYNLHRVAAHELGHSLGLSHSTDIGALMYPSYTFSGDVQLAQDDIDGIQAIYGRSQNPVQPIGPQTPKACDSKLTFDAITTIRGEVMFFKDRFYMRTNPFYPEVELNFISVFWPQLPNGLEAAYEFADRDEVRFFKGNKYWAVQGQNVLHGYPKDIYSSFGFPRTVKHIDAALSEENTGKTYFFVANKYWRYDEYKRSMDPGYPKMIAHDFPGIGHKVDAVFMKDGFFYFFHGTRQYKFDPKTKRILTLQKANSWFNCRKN
In words: MMP-1 colorimetric inhibition assay (Enzo kit). To be noted: colorimetric thiopeptide substrate, absorbance 415 nm; read-out: MMP1 IC50 class. How it is done: as §1
The MMP-1 Colorimetric Drug Discovery Kit (catalog #BML-AK404) is a complete assay system designed to screen inhibitors of matrix metalloproteinase-1 using a thiopeptide as a chromogenic substrate (Ac-PLG-[2-mercapto-4-methylpentanoyl]-LG-OC2H5). The MMP cleavage site peptide bond is replaced by a thioester bond in the thiopeptide. Hydrolysis of this bond by an MMP produces a sulfhydryl group, which reacts with DTNB [5,5′-dithiobis(2-nitrobenzoic acid), Ellman's reagent] to form 2-nitro-5-thiobenzoic acid, that can be detected spectrophotometrically.
as §2, §3, §4

The target of a further assay is T5, MMP13 (Homo sapiens, UniProt P45452).
T5 construct: purchased Enzo Life Sciences, Inc. BML-AK412
In words: MMP-13 colorimetric inhibition assay (Enzo kit). To be noted: colorimetric thiopeptide substrate, absorbance 415 nm; read-out: MMP13 IC50 class. As to the method: as §1
The MMP-13 Colorimetric Drug Discovery Kit (catalog #BML-AK412) is a complete assay system designed to screen inhibitors of matrix metalloproteinase-13 using a thiopeptide as a chromogenic substrate (Ac-PLG-[2-mercapto-4-methylpentanoyl]-LG-OC2H5). The MMP cleavage site peptide bond is replaced by a thioester bond in the thiopeptide. Hydrolysis of this bond by an MMP produces a sulfhydryl group, which reacts with DTNB [5,5′-dithiobis(2-nitrobenzoic acid), Ellman's reagent] to form 2-nitro-5-thiobenzoic acid, that can be detected spectrophotometrically.
as §2, §3, §4

T1 sequence (P14780 94-707): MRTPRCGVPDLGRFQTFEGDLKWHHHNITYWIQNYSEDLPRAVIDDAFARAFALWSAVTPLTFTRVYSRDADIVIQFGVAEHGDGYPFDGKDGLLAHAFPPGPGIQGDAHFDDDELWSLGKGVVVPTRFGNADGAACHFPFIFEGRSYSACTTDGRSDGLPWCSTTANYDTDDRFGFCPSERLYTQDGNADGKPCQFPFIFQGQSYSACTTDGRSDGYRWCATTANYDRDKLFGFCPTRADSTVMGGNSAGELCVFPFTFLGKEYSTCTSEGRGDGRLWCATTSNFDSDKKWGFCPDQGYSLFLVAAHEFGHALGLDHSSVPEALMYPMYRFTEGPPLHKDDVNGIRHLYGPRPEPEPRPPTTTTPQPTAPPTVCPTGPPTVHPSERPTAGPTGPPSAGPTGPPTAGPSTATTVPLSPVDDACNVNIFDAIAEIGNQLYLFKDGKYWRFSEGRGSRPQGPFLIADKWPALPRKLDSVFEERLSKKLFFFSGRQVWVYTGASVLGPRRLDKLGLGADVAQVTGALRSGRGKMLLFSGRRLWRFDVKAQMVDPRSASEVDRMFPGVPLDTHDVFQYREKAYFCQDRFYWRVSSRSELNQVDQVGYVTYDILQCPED
T3 sequence (P78536 223-474 limits assumed): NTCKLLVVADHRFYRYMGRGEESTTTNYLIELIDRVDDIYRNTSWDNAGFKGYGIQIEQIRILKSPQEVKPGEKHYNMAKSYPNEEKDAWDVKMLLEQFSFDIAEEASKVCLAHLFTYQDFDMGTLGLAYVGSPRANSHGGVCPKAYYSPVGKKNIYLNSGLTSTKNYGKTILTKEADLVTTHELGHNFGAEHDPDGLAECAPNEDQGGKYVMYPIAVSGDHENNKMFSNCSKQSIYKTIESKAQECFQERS

`COCCOC(=O)N1CC2CCC(C(=O)NO)(C1)N2S(=O)(=O)N1CCC(Oc2ccc(F)cn2)CC1` (stereo not drawn) [Example 20, 2-methoxyethyl 8-((4-((5-fluoropyridin-2-yl)oxy)piperidin-1-yl)sulfonyl)-1-(hydroxycarbamoyl)-3,8-diazabicyclo[3.2.1]octane-3-carboxylate]: the IC50 at MMP9 is 50 to 1000 nM; at MMP2 it was 50 to 1000 nM; at TACE (ADAM17), more than 10000 nM; at MMP1, more than 10000 nM; at MMP13 it was 50 to 1000 nM.
Consider `COCCOC(=O)N1CC2CCC(C(=O)NO)(C1)N2S(=O)(=O)N1CCC(Oc2ccc(Cl)cc2)CC1` (stereo not drawn) [Example 19, 2-methoxyethyl 8-((4-(4-chlorophenoxy)piperidin-1-yl)sulfonyl)-1-(hydroxycarbamoyl)-3,8-diazabicyclo[3.2.1]octane-3-carboxylate], for which the IC50 is less than 50 nM at MMP9; less than 50 nM at MMP2; 1000 to 10000 nM at TACE (ADAM17); 1000 to 10000 nM on MMP1; less than 50 nM at MMP13.
For the compound `COCCOC(=O)N1CC2CCC(C(=O)NO)(C1)N2S(=O)(=O)N1CCC(Oc2ccncc2)CC1` (stereo not drawn) [Example 21, 2-methoxyethyl 1-(hydroxycarbamoyl)-8-((4-(pyridin-4-yloxy)piperidin-1-yl)sulfonyl)-3,8-diazabicyclo[3.2.1]octane-3-carboxylate], the IC50 is 50 to 1000 nM on MMP9; less than 50 nM on MMP2; more than 10000 nM at TACE (ADAM17); more than 10000 nM on MMP1; 50 to 1000 nM on MMP13.
As for `COCCOC(=O)N1CC2CCC(C(=O)NO)(C1)N2S(=O)(=O)c1ccc(Oc2ccc(F)cc2)c(F)c1` (stereo not drawn) [Example 5, 2-methoxyethyl 8-((3-fluoro-4-(4-fluorophenoxy)phenyl)sulfonyl)-1-(hydroxycarbamoyl)-3,8-diazabicyclo[3.2.1]octane-3-carboxylate], the half-inhibitory concentration (IC50) is less than 50 nM at MMP9; less than 50 nM on MMP2; more than 10000 nM at TACE (ADAM17); more than 10000 nM on MMP1; less than 50 nM on MMP13.
For `COCCOC(=O)N1CC2CCC(C(=O)NO)(C1)N2S(=O)(=O)c1ccc(Oc2ccc(F)cc2)nc1` (stereo not drawn) [Example 13, 2-methoxyethyl 8-((6-(4-fluorophenoxy)pyridin-3-yl)sulfonyl)-1-(hydroxycarbamoyl)-3,8-diazabicyclo[3.2.1]octane-3-carboxylate], the IC50 on MMP9 is less than 50 nM; at MMP2, 50 to 1000 nM; on TACE (ADAM17) it was 1000 to 10000 nM; on MMP1, 1000 to 10000 nM; at MMP13, 50 to 1000 nM.
For the compound `COCCOC(=O)N1CC2CCC(C(=O)NO)(C1)N2S(=O)(=O)N1CCN(Cc2ccc(F)cc2)CC1` (stereo not drawn) [Example 22, 2-methoxyethyl 8-((4-(4-fluorobenzyl)piperazin-1-yl)sulfonyl)-1-(hydroxycarbamoyl)-3,8-diazabicyclo[3.2.1]octane-3-carboxylate], the IC50 at MMP9 was 1000 to 10000 nM; at MMP2, 1000 to 10000 nM; on TACE (ADAM17), more than 10000 nM; at MMP1, more than 10000 nM; at MMP13, 1000 to 10000 nM.

What is called IC50 is the concentration that gives 50% inhibition.
